Holding throughout (type): in vivo
One test relates to Rhyncosporium secalis. Briefly: Barley scald (RHYNSE), percent disease control. Particulars: 24 h, 1 Day Protectant, read-out: Disease control RHYNSE 1DP. The protocol:
Technical grades of materials were dissolved in acetone, which were then mixed with nine volumes of water containing 110 ppm Triton X-100. The fungicide solutions were applied onto wheat seedlings using an automated booth sprayer to run-off. All sprayed plants were allowed to air dry prior to further handling. All fungicides were evaluated using the aforementioned method for their activity vs. all target diseases. Wheat leaf blotch and brown rust activity were also evaluated using track spray applications, in which case the fungicides were formulated as EC formulations, containing 0.1% Trycol 5941 in the spray solutions. Wheat plants (variety Yuma) were grown from seed in a greenhouse in 50% mineral soil/50% soil-less Metro mix until the first leaf was fully emerged, with 7-10 seedlings per pot. These plants were inoculated with an aqueous spore suspension of Septoria tritici either prior to or after fungicide treatments. After inoculation the plants were kept in 100% relative humidity (one day in a dark dew chamber followed by two to three days in a lighted dew chamber at 20° C.) to permit spores to germinate and infect the leaf. The plants were then transferred to a greenhouse set at 20° C. for disease to develop. When disease symptoms were fully expressed on the 1st leaves of untreated plants, infection levels were assessed on a scale of 0 to 100 percent disease severity. Percent disease control was calculated using the ratio of disease severity on treated plants relative to untreated plants. Evaluation of Fungicidal Activity: Barley Scald (Rhyncosporium secalis; Bayer Code […]) Barley seedlings (variety Harrington) were propagated in soil-less Metro mix, with each pot having 8 to 12 plants, and used in the test when first leaf was fully emerged. Test plants were inoculated by an aqueous spore suspension of Rhyncosporium secalis 24 hr after fungicide treatments. After inoculation the plants were kept in a dew room at 20° C. with 100% relative humidity for 48 hr. The plants were then transferred to a greenhouse set at 20° C. for disease to develop. Fungicide formulation, application and disease assessment on the sprayed leaves followed the procedures as described in the Example A.

Test [1] relates to Mycosphaerella graminicola; Anamorph: Septoria tritici. Briefly: Leaf blotch of wheat (SEPTTR), percent disease control on wheat seedlings. Particulars: Zymoseptoria tritici, rate 100 ppm. The protocol: Evaluation of Fungicidal Activity: Leaf Blotch of Wheat (Mycosphaerella graminicola; Anamorph: Septoria tritici; Bayer Code […]) Technical grades of materials were dissolved in acetone, which were then mixed with nine volumes of water containing 110 ppm Triton X-100. The fungicide solutions were applied onto wheat seedlings using an automated booth sprayer to run-off. All sprayed plants were allowed to air dry prior to further handling. All fungicides were evaluated using the aforementioned method for their activity vs. all target diseases. Wheat leaf blotch and brown rust activity were also evaluated using track spray applications, in which case the fungicides were formulated as EC formulations, containing 0.1% Trycol 5941 in the spray solutions. Wheat plants (variety Yuma) were grown from seed in a greenhouse in 50% mineral soil/50% soil-less Metro mix until the first leaf was fully emerged, with 7-10 seedlings per pot. These plants were inoculated with an aqueous spore suspension of Septoria tritici either prior to or after fungicide treatments. […] When disease symptoms were fully expressed on the 1st leaves of untreated plants, infection levels were assessed on a scale of 0 to 100 percent disease severity. Percent disease control was calculated using the ratio of disease severity on treated plants relative to untreated plants.

The subject of the next test is Puccinia triticina. Briefly: Wheat brown rust (PUCCRT), percent disease control on wheat seedlings. Particulars: rate 100 ppm.

The values below come from US9549555B2, “Macrocyclic picolinamide compounds with fungicidal activity” (DOW AGROSCIENCES LLC, priority 2013, dated 2017).

Read-outs that look alike come from different tables or passages of the source.

As to `CCCO[C@H]1CCC[C@H](NC(=O)c2nccc(OC)c2OCOC(C)=O)C(=O)O[C@@H](C)[C@@H]1CCC(C)C` [Compound 25, ((2-(((3S,7S,8S,9S)-8-isopentyl-9-methyl-2-oxo-7-propoxyoxonan-3-yl)carbamoyl)-4-methoxypyridin-3-yl)oxy)methyl acetate], the pest or weed control at 100 ppm in the test with Rhyncosporium secalis is over 70%.

Take `CCCC[C@H]1[C@H](C)OC(=O)[C@@H](NC(=O)c2nccc(OC)c2OCOC(C)=O)CCC[C@@H]1Oc1ccccc1` [Compound 33]: the pest or weed control at 100 ppm in the test on Rhyncosporium secalis was over 70%.

For the compound `COc1ccnc(C(=O)N[C@H]2CCC[C@H](Oc3ccccc3)[C@@H](CCC(C)C)[C@H](C)OC2=O)c1OC(C)=O` [Compound 36], the pest or weed control at 100 ppm with Rhyncosporium secalis was over 70%.

For the compound `COc1ccnc(C(=O)N[C@H]2CCC[C@H](Oc3ccccc3)[C@@H](CCC(C)C)[C@H](C)OC2=O)c1OCOC(C)=O` [Compound 40], the pest or weed control at 100 ppm with Rhyncosporium secalis is over 70%.

Regarding `COc1ccnc(C(=O)N[C@H]2CCC[C@H](OCC3CC3)[C@@H](Cc3ccc(F)cc3)[C@H](C)OC2=O)c1OCOC(C)=O` [Compound 61], the pest or weed control at 100 ppm with Rhyncosporium secalis was over 70%.

Regarding `COc1ccnc(C(=O)N[C@H]2CCC[C@H](OCC(C)C)[C@@H](Cc3ccccc3)[C@H](C)OC2=O)c1O` [Compound 62], the pest or weed control at 100 ppm in test [1] (24 h, 1 Day Protectant, read-out: Disease control SEPTTR 1DP) is over 70%; in test [1] (72 h, 3 Day Curative, read-out: Disease control SEPTTR 3DC) it was under 70%; in the test with Puccinia triticina (24 h, 1 Day Protectant, read-out: Disease control PUCCRT 1DP), over 70%; in the test with Puccinia triticina (72 h, 3 Day Curative, read-out: Disease control PUCCRT 3DC), over 70%.

As for `CCCO[C@H]1CCC[C@H](NC(=O)c2nccc(OC)c2OC(C)=O)C(=O)O[C@@H](C)[C@@H]1Cc1ccccc1` [Compound 70], the pest or weed control at 100 ppm in the test on Rhyncosporium secalis is over 70%.

As for `CCCC[C@H]1[C@H](C)OC(=O)[C@@H](NC(=O)c2nccc(OC)c2OCOC(C)=O)CCC[C@@H]1OCC1CC1` [Compound 73], in the test with Rhyncosporium secalis, the pest or weed control at 100 ppm is over 70%.

Regarding `CCCO[C@H]1CCC[C@H](NC(=O)c2nccc(OC)c2OC(C)=O)C(=O)O[C@@H](C)[C@@H]1CCC(C)C` [Compound 74, 2-((3S,7S,8S,9S)-8-isopentyl-9-methyl-2-oxo-7-propoxyoxonan-3-yl)carbamoyl)-4-methoxypyridin-3-yl acetate], the pest or weed control at 100 ppm in the test with Rhyncosporium secalis is over 70%.
